Results from paper PMC12508063, “Chloroindazole based estrogen receptor β ligands with favorable pharmacokinetics promote functional remyelination and visual recovery” (Scientific Reports, 2025).
Read-outs that look alike come from different tables or passages of the source.

Key:
CYP1A2 = CYP1A2 (Homo sapiens, UniProt P05177); test: CYP inhibition; conditions: test compounds at 10 μM; substrate Phenacetin
[1] = Liver microsome stability (human)
EAE mice = test: Optical coherence tomography (RNFL thickness) in EAE; assay type: in vivo, mouse; conditions: vs EAE + V
Description: Optical coherence tomography, electroretinograms and visual evoked potentials: OCT was acquired using the spectral domain‐OCT (R2200 840 nm HHP; Leica, Deerfield, IL) at peak EAE disease according to previously published methods[23],[28]. Each image was taken 3 times and averaged. Automatic segmentation of retinal layers was performed using Bioptigen Diver 3.0 software (Leica Microsystems, Deerfield, IL). ERG and VEPs were measured using the HMsERG200 ([…], Henderson, NV) as previously described[23],[28]. Animals were dark adapted for a minimum of 5 h prior to recording. During acquisition, animals were anesthetized with continuous 2% isoflurane. Traces were averaged and filtered for 60 Hz noise and a low-pass filter. MATLAB was used to adjust baselines and smoothed prior to measuring ERG and VEP amplitudes and latencies.
Optical coherence tomography: OCT was acquired using the spectral domain‐OCT (R2200 840 nm HHP; Leica, Deerfield, IL) at peak EAE disease according to previously published methods(8, 9). Each image was taken 3 times and averaged. Automatic segmentation of retinal layers was performed using Bioptigen Diver 3.0 software (Leica Microsystems, Deerfield, IL).

[2] = Hepatocyte stability (human)
[3] = Oral PK of K102 at 40 mg/kg in female mice; assay type: in vivo, C57BL/6 mouse; conditions: female mouse, PO 40 mg/kg, mean
[4] = Oral PK of K102 at 40 mg/kg in female rats; assay type: in vivo, Sprague–Dawley rat; conditions: female rat, PO 40 mg/kg, mean
[5] = Oral PK of K102 at 40 mg/kg in female monkeys; assay type: in vivo, cynomolgus monkey; conditions: female monkey, PO 40 mg/kg, mean
[6] = Liver microsome stability (mouse)
CYP2C9 [7] = biological target: T1, CYP2C9 (Homo sapiens, UniProt P11712); test: CYP inhibition; conditions: test compounds at 10 μM; substrate Diclofenac Sodium
[8] = Oral PK of K102 at 40 mg/kg in female dogs; assay type: in vivo, beagle dog; conditions: female dog, PO 40 mg/kg, mean
[9] = test system: EAE optic nerve gene transcripts; test: NanoString nCounter Mouse Neuropathology gene expression, optic nerve RNA; assay type: in vivo
Description: RNA Extraction and NanoString nCounter Gene Expression Assay: RNA was isolated from a single optic nerve of normal, EAE+Vehicle, and EAE+K102 mice[28]. The RNA samples were analyzed using the nCounter Mouse Neuropathology panel (NanoString Technologies) (Supplementary Data Set 1). Fold changes were calculated using normalized data for the three groups (Supplementary Data Set 2).
Genes associated with myelination, inflammation, and axon health are altered in EAE optic nerves compared to normal optic nerves. To examine how K102 treatment affects these gene transcripts, RNA from treated optic nerves was analyzed using the NanoString Neuropathology gene expression panel (Fig. 7A, Supplementary Data Set 1). […] Ccr2 is a chemokine receptor involved in recruiting immune cells to sites of inflammation. Cpt1b (carnitine palmitoyltransferase 1B) is an enzyme critical for fatty acid oxidation.
RNA Extraction and NanoString nCounter Gene Expression Assay: RNA was isolated from a single optic nerve as described previously in(9). Optic nerves were isolated from normal, EAE+V, and EAE+K102 mice. RNA isolates were run on the nCounter Mouse Neuropathology panel (NanoString Technologies, Seattle, WA). Normalized data was used to calculate fold change for all three groups.
For nCounter gene expression analysis, normalized counts were used to calculate log2 fold changes. Welch’s t-test (unequal variance t-test) was applied when comparing NM vs. EAE+V and EAE+V vs. EAE+K102, as both sample sizes and variances differed between groups. Significance levels were set as follows: *p < 0.05, **p < 0.01, ***p < 0.001, and ****p < 0.0001. Summary of statistics for Figures is in a table format in the supplementary sections Supplementary TableS7-S12 […]

[10] = Plasma protein binding (mouse)
CYP2D6 [11] = biological target: T2, CYP2D6 (Homo sapiens, UniProt P10635); test: CYP inhibition; conditions: test compounds at 10 μM; substrate Dextromethorphan
CYP2C9 [12] = biological target: T1, CYP2C9; conditions: 10 µM
[13] = hepatocytes
CYP2D6 [14] = biological target: T2, CYP2D6; conditions: 10 µM
[15] = microsomes
[16] = plasma

T2 sequence (P10635 whole entry): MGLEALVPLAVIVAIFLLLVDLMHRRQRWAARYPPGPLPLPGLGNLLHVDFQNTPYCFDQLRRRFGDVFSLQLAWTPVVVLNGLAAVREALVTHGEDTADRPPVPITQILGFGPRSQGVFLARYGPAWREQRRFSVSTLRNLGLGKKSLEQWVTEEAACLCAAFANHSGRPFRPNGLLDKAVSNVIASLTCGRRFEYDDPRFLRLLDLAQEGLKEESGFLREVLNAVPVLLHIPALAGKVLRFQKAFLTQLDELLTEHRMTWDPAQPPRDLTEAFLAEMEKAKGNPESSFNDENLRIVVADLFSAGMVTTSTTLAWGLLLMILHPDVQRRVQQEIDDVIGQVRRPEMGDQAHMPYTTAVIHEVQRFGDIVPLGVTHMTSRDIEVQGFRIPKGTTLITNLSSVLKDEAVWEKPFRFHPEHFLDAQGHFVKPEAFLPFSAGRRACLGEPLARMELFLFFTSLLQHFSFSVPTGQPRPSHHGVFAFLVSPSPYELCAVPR
T1 sequence (P11712 whole entry): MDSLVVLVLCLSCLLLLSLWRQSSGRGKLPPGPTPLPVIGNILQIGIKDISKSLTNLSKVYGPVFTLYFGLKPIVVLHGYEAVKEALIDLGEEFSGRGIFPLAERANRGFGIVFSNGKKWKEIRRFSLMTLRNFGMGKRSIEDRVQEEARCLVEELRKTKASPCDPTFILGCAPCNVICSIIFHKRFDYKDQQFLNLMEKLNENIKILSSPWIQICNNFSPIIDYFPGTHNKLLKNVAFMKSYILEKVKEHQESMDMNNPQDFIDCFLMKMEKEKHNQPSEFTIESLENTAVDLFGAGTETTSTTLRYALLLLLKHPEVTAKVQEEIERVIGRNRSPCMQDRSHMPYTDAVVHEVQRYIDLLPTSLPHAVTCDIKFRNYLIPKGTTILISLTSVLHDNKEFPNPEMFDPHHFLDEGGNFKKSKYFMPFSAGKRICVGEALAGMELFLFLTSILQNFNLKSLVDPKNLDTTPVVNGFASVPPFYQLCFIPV
CYP1A2, sequence (P05177 whole entry): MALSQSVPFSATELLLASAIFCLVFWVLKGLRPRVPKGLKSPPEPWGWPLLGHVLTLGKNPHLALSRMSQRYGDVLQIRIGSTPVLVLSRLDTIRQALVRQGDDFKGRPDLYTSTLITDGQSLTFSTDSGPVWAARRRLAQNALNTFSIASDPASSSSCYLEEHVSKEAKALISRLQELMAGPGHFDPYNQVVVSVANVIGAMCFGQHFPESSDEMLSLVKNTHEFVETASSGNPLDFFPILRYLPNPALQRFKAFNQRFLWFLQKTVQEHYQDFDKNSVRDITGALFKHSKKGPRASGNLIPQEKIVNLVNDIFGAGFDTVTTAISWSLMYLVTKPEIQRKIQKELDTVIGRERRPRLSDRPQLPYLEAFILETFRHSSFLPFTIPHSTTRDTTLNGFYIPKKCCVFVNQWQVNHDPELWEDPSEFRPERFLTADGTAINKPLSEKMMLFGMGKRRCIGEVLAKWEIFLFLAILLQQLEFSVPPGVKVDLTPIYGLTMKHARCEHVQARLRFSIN

In the case of `Cc1cc(O)ccc1-n1nc2ccc(O)cc2c1Cl` [Compound K102, IndCl-o-Me], the “CYP Inhibition Percentage CYP1A2” value (CYP1A2) is reported as 26.19%, the “Liver Microsome Stability (Human) % Remaining (30 min)” value ([1]; 30 min) is reported as 78.03% and the “Liver Microsome Stability (Human) CLint” value ([1]; human, microsomes) is reported as 8.47 µL/min/mg protein. The “RNFL thickness (OCT)” value (EAE mice) was “prevented the significant reduction”, the “Hepatocyte Stability (Human) % Remaining (15 min)” value ([2]; 15 min) was 60.05% and the “Hepatocyte Stability (Human) CLint” value ([2]; human, hepatocytes) was 72.12 µL/min/mg protein. For the same compound, the AUCExtr [3] was 13.0%, the AUCInf [3] was 855 ng·h/mL and the AUCInf/D [3] was 21.4 kg·ng·h/mL/mg. The AUClast [3] was 748 ng·h/mL, the Cmax [3] was 945 ng/mL and the MRTInf [3] was 248 min. For the same compound, the Tmax [3] was 15 min, the t1/2 [3] was 256 min and the AUCInf/D [4] was 235.1 kg·ng·h/mL/mg. For the same compound, the AUClast [4] was 9403 ng·h/mL, the Cmax [4] was 1657 ng/mL and the Tmax [4] was 15 min. The AUCInf/D [5] was 59.3 kg·ng·h/mL/mg, the AUClast [5] was 2373.0 ng·h/mL and the Cmax [5] was 355.3 ng/mL. The Tmax [5] was 79.8 min, the “Liver Microsome Stability (Mouse) % Remaining (30 min)” value ([6]; 30 min) was 30.18% and the “Liver Microsome Stability (Mouse) CLint” value ([6]; mouse, microsomes) was 40.80 µL/min/mg protein. For the same compound, the “Liver Microsome Stability (Mouse) t1/2” value ([6]; mouse, microsomes) was 17.12 min, the “CYP Inhibition Percentage CYP2C9” value (CYP2C9 [7]) was 36.09% and the AUCInf/D [8] was 0.6 kg·ng·h/mL/mg. It also gave an AUClast [8] of 24.6 ng·h/mL, a Cmax [8] of 31.7 ng/mL and a Tmax [8] of 15 min. For the same compound, the “Ccr2 and Cpt1b transcripts vs vehicle-treated optic nerves” value ([9]; 2 of 770 genes) was “significantly altered”, the “Arc and Pvalb transcripts vs vehicle” value ([9]; optic nerve, EAE) was “increased” and the “Sox10 and Olig2 transcripts relative to vehicle” value ([9]; optic nerve, EAE) was “increase”. For the same compound, the “complement system genes C1qa, C1qb, C1qc, and C3” value ([9]; optic nerve, EAE) was “did not significantly impact”, the “mitochondrial-related genes Pink1, Tfam, Mfn2, Park7, and Sirt2” value ([9]; vs untreated EAE optic nerves) was “significant increase” and the “Protein Binding (% Bound) Mouse” value [10] was 96.81%. For the same compound, the “CYP Inhibition Percentage CYP2D6” value (CYP2D6 [11]) was 18.26%.
In the case of `Oc1ccc(-n2nc3ccc(O)cc3c2Cl)c(O)c1` [Compound K110, IndCl-o-OH], the “CYP Inhibition Percentage CYP2C9” value (CYP2C9 [12]) is reported as 18.49%, the “Hepatocyte Stability (Mouse) t1/2” value [13] is reported as 6.15 min and the “Hepatocyte Stability (Mouse) % Remaining (15 min)” value ([13]; 0.25 h) is reported as 19.46%. The “CYP Inhibition Percentage CYP2D6” value (CYP2D6 [14]) was 5.63%, the “Liver Microsome Stability (Human) CLint” value [15] was 13.64 µL/min/mg protein and the “Liver Microsome Stability (Human) % Remaining (30 min)” value ([15]; 0.5 h) was 66.88%. For the same compound, the “Protein Binding (% Bound) Mouse” value [16] was 91.79%.
